Molecules are shown by their SMILES.

Usually logP stands for the decadic logarithm of the partition coefficient of the neutral form, usually between octanol and water. A higher logP goes with a more lipophilic compound. Consider `COc1ccc2cc(C(C)C(=O)Oc3ccccc3)ccc2c1` (centres undefined), for which the lipophilicity (logP) came out at 5.17.
For the molecule `CCCCCOC(=O)C(C)c1ccc2cc(OC)ccc2c1` (centres undefined), the logP is 6.02.
`CCOC(=O)C(C)c1ccc2cc(OC)ccc2c1` (centres undefined): the logP is 4.78.
The figure for `CCCCOC(=O)C(C)c1ccc2cc(OC)ccc2c1` (centres undefined) is 5.81.
In the case of `CCCOC(=O)C(C)c1ccc2cc(OC)ccc2c1` (centres undefined) it was 5.34.
The figure for `COc1ccc2cc(C(C)C(=O)OCC=C(C)CCC=C(C)C)ccc2c1` (centres undefined) is 7.77; for `CCCCCCCOC(=O)C(C)c1ccc2cc(OC)ccc2c1` (centres undefined) it is 7.21.
The molecule `COc1ccc2cc(C(C)C(=O)OC3CCCCC3O)ccc2c1` (centres undefined) displayed a logP of 4.71.
In the case of `COc1ccc2cc(C(C)C(=O)OC(C)C)ccc2c1` (centres undefined) it was 4.98; in that of `CCCCCCOC(=O)C(C)c1ccc2cc(OC)ccc2c1` (centres undefined), 6.54.
In the case of `CCC#CCCOC(=O)C(C)c1ccc2cc(OC)ccc2c1` (centres undefined) it was 5.91; in that of `COc1ccc2cc(C(C)C(=O)OC3CCCCC3=O)ccc2c1` (centres undefined), 4.96; in that of `COc1ccc2cc(C(C)C(=O)OCCCCCCO)ccc2c1` (centres undefined), 4.74.
In the case of `CC=CC=CCOC(=O)C(C)c1ccc2cc(OC)ccc2c1` (centres undefined) it was 6.31; in that of `CCC=CCCOC(=O)C(C)c1ccc2cc(OC)ccc2c1` (centres undefined), 6.21.
In the case of `COc1ccc2cc(C(C)C(=O)OCCCO)ccc2c1` (centres undefined), the logP was determined as 3.73.
With `COc1ccc2cc(C(C)C(=O)OC3COC4C(O)COC34)ccc2c1` (centres undefined), the logP worked out at 3.14.
In the case of `COc1ccc2cc(C(C)C(=O)OCC(C)O)ccc2c1` (centres undefined), the logP was 3.74.
The figure for `CCCCCCCCOC(=O)C(C)c1ccc2cc(OC)ccc2c1` (centres undefined) is 7.66; for `COc1ccc2cc(C(C)C(=O)OC3CCCCC3)ccc2c1` (centres undefined) it is 5.82; for `COc1ccc2cc(C(C)C(=O)OCCOCCO)ccc2c1` (centres undefined) it is 3.79.
The figure for `COc1ccc2cc(C(C)C(=O)OCC(C)=O)ccc2c1` (centres undefined) is 4.06; for `COc1ccc2cc(C(C)C(=O)OCCO)ccc2c1` (centres undefined) it is 3.05.
The figure for `COC(=O)C(C)c1ccc2cc(OC)ccc2c1` (centres undefined) is 4.6.

Source of the values: the SangsterLogP compilation.
